As usually defined, the Ki is the dissociation constant of the complex between target and ligand, obtained from inhibition or displacement. By IC50 is commonly meant the concentration that inhibits the measured activity by half.

Assay [1] has as its target cloned human P2Y1 receptors (Homo sapiens (Human), UniProt P47900). The assay can be described thus: Binding Assay B - Scintillation Proximity Assay (SPA) for P2Y1 binding, [33P] 2MeS-ADP. The note with it: SPA, 0.3 nM [33P] 2MeS-ADP, Cheng-Prusoff; read-out: P2Y1 Ki (nM) using binding assay B. The method, then:
Binding Assay B—Scintillation Proximity Assay (SPA) for P2Y1 Binding
A SPA membrane binding assay was used to identify inhibitors of [^33P] […] Reactions were allowed to proceed to completion at room temperature for 1 hour followed by centrifugation of the plate for 5 min. About 40 μL of the aqueous solution was aspirated. Plates were sealed and the [^33P]
(In general: Scintillation proximity formats need no separation of bound from free tracer.)

Assay [2] has as its system human platelet rich plasma (PRP). The assay can be described thus: ADP induced platelet aggregation assay. The note with it: Homo sapiens, Platelet, 5 min, read-out: PA IC50 (μM) @ 10 μM ADP, human PRP, 10 μM ADP, AUC at 5 minute.
Method: The ability of P2Y1 antagonists covered in the present invention to inhibit platelet aggregation induced by 10 μM ADP was tested using human platelet rich plasma (PRP) as described in Platelet Protocols: Research and Clinical Laboratory Procedures (White, M. M. et al., Academic Press (1999)). Human blood was collected in 30 μM (final concentration in blood) argatroban (GSK) as the anticoagulant at a ratio of 1 mL per 9 mL of blood. The PRP was isolated by centrifugation at 170 g for 12 minutes. The platelet poor plasma (PPP) was used as the blank for optical aggregometry. Compounds of the present invention in DMSO solution was preincubated with 250 μL PRP at 37° C. for 1 minute with stirring speed of 1000 rpm. Aggregation was initiated by addition of 2.5 μL of 1 mM ADP (Chrono-log, Havertown, Pa.) for a final ADP concentration of 10 μM. Platelet aggregation was monitored using Optical Aggregometer (Chrono-log, Havertown, Pa.) and the area under the curve (AUC) at 5 minute was measured. IC50 was calculated using vehicle control as 0% inhibition.

Chain of cloned human P2Y1 receptors (P47900 whole entry): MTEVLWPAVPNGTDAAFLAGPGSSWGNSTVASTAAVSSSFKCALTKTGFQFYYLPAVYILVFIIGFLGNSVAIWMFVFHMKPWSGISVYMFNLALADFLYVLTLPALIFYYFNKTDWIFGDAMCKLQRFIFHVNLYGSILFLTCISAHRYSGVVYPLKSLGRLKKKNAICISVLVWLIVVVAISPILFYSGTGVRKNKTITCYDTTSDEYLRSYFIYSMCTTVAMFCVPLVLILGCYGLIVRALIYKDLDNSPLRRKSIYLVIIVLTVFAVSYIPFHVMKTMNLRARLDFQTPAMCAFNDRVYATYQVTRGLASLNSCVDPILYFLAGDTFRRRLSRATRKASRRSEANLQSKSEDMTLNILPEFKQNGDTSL

On to `CC1(C)CN(c2ccccc2NC(=O)Nc2csc(Cl)n2)c2c(O)cc(F)c(-c3ccc(F)cc3)c21` [Example 212, 1-(2-Chlorothiazol-4-yl)-3-(2-(5-fluoro-4-(4-fluorophenyl)-7-hydroxy-3,3-dimethylindolin-1-yl)phenyl)urea], for which the Ki in assay [1] was 4.9 nM. The concentration for half-maximal inhibition (IC50) in assay [2] worked out at 0.16 µM.
For the compound `CC1(C)CN(c2ccccc2NC(=O)Nc2nc3ccc(F)cc3s2)c2c(O)cc(F)c(-c3ccc(F)cc3)c21` [Example 213, 1-(2-(5-Fluoro-4-(4-fluorophenyl)-7-hydroxy-3,3-dimethylindolin-1-yl)phenyl)-3-(6-fluorobenzo[d]thiazol-2-yl)urea], the Ki in assay [1] was 25.4 nM. The IC50 in assay [2] came out at 0.38 µM.
Taken in the same sequence, the figures for `CC1(C)CN(c2ccccc2NC(=O)Nc2ccc(OC(F)(F)F)cc2)c2c(O)cc(F)c(-c3ccc(Cl)cc3)c21` [Example 214, 1-(2-(4-(4-Chlorophenyl)-5-fluoro-7-hydroxy-3,3-dimethylindolin-1-yl)phenyl)-3-(4-(trifluoromethoxy)phenyl)urea] were 13.7 nM and 0.21 µM.
For `CC1(C)CN(c2ccccc2NC(=O)Nc2csc(Cl)n2)c2c(O)cc(F)c(-c3ccc(Cl)cc3)c21` [Example 215, 1-(2-(4-(4-Chlorophenyl)-5-fluoro-7-hydroxy-3,3-dimethylindolin-1-yl)phenyl)-3-(2-chlorothiazol-4-yl)urea] the same measures were 15 nM and 0.14 µM.
For `CC1(C)CN(c2ccccc2NC(=O)Nc2ccc(OC(F)(F)F)cc2)c2c(O)cc(F)c(-c3ccc(C(F)(F)F)cc3)c21` [Example 216, 1-(2-(5-Fluoro-7-hydroxy-3,3-dimethyl-4-(4-(trifluoromethyl)phenyl)indolin-1-yl)phenyl)-3-(4-(trifluoromethoxy)phenyl)urea], the Ki in assay [1] was found to be 54.7 nM. Moreover, the IC50 in assay [2] worked out at 0.14 µM.
Consider `CC1(C)CN(c2ccccc2NC(=O)Nc2nc3ccc(F)cc3s2)c2c(O)cc(F)c(-c3ccc(Cl)cc3)c21` [Example 224, 1-(2-(4-(4-Chlorophenyl)-5-fluoro-7-hydroxy-3,3-dimethylindolin-1-yl)phenyl)-3-(6-fluorobenzo[d]thiazol-2-yl)urea], for which, in assay [1], the Ki was 26.1 nM. For the same compound, the IC50 in assay [2] was 0.34 µM.
`CC1(C)CN(c2ccccc2NC(=O)Nc2nc3ccc(Cl)cc3s2)c2c(O)cc(F)c(-c3ccc(Cl)cc3)c21` [Example 225, 1-(6-Chlorobenzo[d]thiazol-2-yl)-3-(2-(4-(4-chlorophenyl)-5-fluoro-7-hydroxy-3,3-dimethylindolin-1-yl)phenyl)urea]: in assay [1], the inhibition constant (Ki) was found to be 34.7 nM. Besides, the IC50 in assay [2] worked out at 0.36 µM.
Turning to `CC1(C)CN(c2ccccc2NC(=O)Nc2nc3ccc(Cl)nc3s2)c2c(O)cc(F)c(-c3ccc(Cl)cc3)c21` [Example 226, 1-(2-(4-(4-Chlorophenyl)-5-fluoro-7-hydroxy-3,3-dimethylindolin-1-yl)phenyl)-3-(5-chlorothiazolo[5,4-b]pyridin-2-yl)urea], the inhibitory constant (Ki) in assay [1] amounted to 26.6 nM. Besides, the IC50 in assay [2] amounted to 0.46 µM.
For `CC1(C)CN(c2ccccc2NC(=O)Nc2nc3ccc(F)nc3s2)c2c(O)cc(F)c(-c3ccc(Cl)cc3)c21` [Example 227, 1-(2-(4-(4-Chlorophenyl)-5-fluoro-7-hydroxy-3,3-dimethylindolin-1-yl)phenyl)-3-(5-fluorothiazolo[5,4-b]pyridin-2-yl)urea] the same measures were 21.6 nM and 0.56 µM.
Consider `CC1(C)CN(c2ccccc2NC(=O)Nc2csc(C(F)(F)F)n2)c2c(O)cc(F)c(-c3ccc(F)cc3)c21` [Example 228, 1-(2-(5-Fluoro-4-(4-fluorophenyl)-7-hydroxy-3,3-dimethylindolin-1-yl)phenyl)-3-(2-(trifluoromethyl)thiazol-4-yl)urea], for which, in assay [1], the inhibitory constant (Ki) amounted to 13.6 nM. Also, in assay [2], the IC50 stood at 0.3 µM.
In the case of `CC1(C)CN(c2ccccc2NC(=O)Nc2ccc(OC(F)(F)F)cc2)c2c(O)c(F)cc(-c3ccc(C(F)(F)F)cc3)c21` [Example 229, 1-(2-(6-Fluoro-7-hydroxy-3,3-dimethyl-4-(4-(trifluoromethyl)phenyl)indolin-1-yl)phenyl)-3-(4-(trifluoromethoxy)phenyl)urea], in assay [1], the Ki was found to be 15.3 nM. Also, the IC50 in assay [2] is 0.22 µM.
For `CC1(C)CN(c2ccccc2NC(=O)Nc2ccc(OC(F)(F)F)cc2)c2c(O)c(F)cc(-c3ccccc3)c21` [Example 230, 1-(2-(6-Fluoro-7-hydroxy-3,3-dimethyl-4-phenylindolin-1-yl)phenyl)-3-(4-(trifluoromethoxy)phenyl)urea] the same measures were 16.3 nM and 0.3 µM.
In the case of `CC1(C)CN(c2ccccc2NC(=O)Nc2ccc(OC(F)(F)F)cc2)c2c(O)c(F)cc(-c3ccc(Cl)cc3)c21` [Example 231, 1-(2-(4-(4-Chlorophenyl)-6-fluoro-7-hydroxy-3,3-dimethylindolin-1-yl)phenyl)-3-(4-(trifluoromethoxy)phenyl)urea], in assay [1], the inhibition constant (Ki) turned out to be 15.2 nM. Also, the IC50 in assay [2] came to 0.3 µM.
As for `CC1(C)CN(c2ccccc2NC(=O)Nc2ccc(OC(F)(F)F)cc2)c2c(O)c(F)cc(-c3ccc(F)cc3)c21` [Example 232, 1-(2-(6-Fluoro-4-(4-fluorophenyl)-7-hydroxy-3,3-dimethylindolin-1-yl)phenyl)-3-(4-(trifluoromethoxy)phenyl)urea], the inhibition constant Ki in assay [1] stood at 14.7 nM. Besides, the concentration for half-maximal inhibition (IC50) in assay [2] is 0.39 µM.
For the compound `CC1(C)CN(c2ccccc2NC(=O)Nc2nc3ccc(F)nc3s2)c2c(O)cc(F)c(-c3ccc(F)cc3)c21` [Example 233, 1-(2-(5-Fluoro-4-(4-fluorophenyl)-7-hydroxy-3,3-dimethylindolin-1-yl)phenyl)-3-(5-fluorothiazolo[5,4-b]pyridin-2-yl)urea], in assay [1], the Ki stood at 9.4 nM. Besides, the concentration for half-maximal inhibition (IC50) in assay [2] was 0.31 µM.
For the compound `CC1(C)CN(c2ccccc2NC(=O)Nc2ccc(OC(F)(F)F)cc2)c2c(O)cc(F)c(-c3ccc(Cl)c(F)c3)c21` [Example 234, 1-(2-(4-(4-Chloro-3-fluorophenyl)-5-fluoro-7-hydroxy-3,3-dimethylindolin-1-yl)phenyl)-3-(4-(trifluoromethoxy)phenyl)urea], the inhibition constant (Ki) in assay [1] turned out to be 40.8 nM. Moreover, the concentration for half-maximal inhibition (IC50) in assay [2] was 0.29 µM.
For the compound `CC1(C)CN(c2ccccc2NC(=O)Nc2ccc(OC(F)(F)F)cc2)c2c(O)cc(F)c(-c3cccc(Cl)c3)c21` [Example 235, 1-(2-(4-(3-Chlorophenyl)-5-fluoro-7-hydroxy-3,3-dimethylindolin-1-yl)phenyl)-3-(4-(trifluoromethoxy)phenyl)urea], the inhibition constant Ki in assay [1] is 19.5 nM. The IC50 in assay [2] turned out to be 0.23 µM.
For `CC1(C)CN(c2ccccc2NC(=O)Nc2ccc(OC(F)(F)F)cc2)c2c(O)cc(F)c(-c3ccc(Cl)cc3F)c21` [Example 236, 1-(2-(4-(4-Chloro-2-fluorophenyl)-5-fluoro-7-hydroxy-3,3-dimethylindolin-1-yl)phenyl)-3-(4-(trifluoromethoxy)phenyl)urea], the Ki in assay [1] was found to be 17 nM. For the same compound, the 50% inhibitory concentration (IC50) in assay [2] stood at 0.23 µM.
For `CC1(C)CN(c2ccccc2NC(=O)Nc2ccc(OC(F)(F)F)cc2)c2c(O)cc(F)c(-c3ccc(F)c(Cl)c3)c21` [Example 237, 1-(2-(4-(3-Chloro-4-fluorophenyl)-5-fluoro-7-hydroxy-3,3-dimethylindolin-1-yl)phenyl)-3-(4-(trifluoromethoxy)phenyl)urea] the same measures were 21.5 nM and 0.48 µM.
With `CC(C)CN1CCC(c2ccc(NC(=O)Nc3ccccc3N3CC(C)(C)c4c(-c5ccc(Cl)cc5)c(F)cc(O)c43)cc2)CC1` [Example 238, 1-(2-(4-(4-Chlorophenyl)-5-fluoro-7-hydroxy-3,3-dimethylindolin-1-yl)phenyl)-3-(4-(1-isobutylpiperidin-4-yl)phenyl)urea], the inhibitory constant (Ki) in assay [1] is 16.3 nM. Besides, the concentration for half-maximal inhibition (IC50) in assay [2] was determined as 0.4 µM.
With `CC1(C)CN(c2ccccc2NC(=O)Nc2csc(Cl)n2)c2c(O)cc(F)c(-c3ccc(C(F)(F)F)cc3)c21` [Example 239, 1-(2-Chlorothiazol-4-yl)-3-(2-(5-fluoro-7-hydroxy-3,3-dimethyl-4-(4-(trifluoromethyl)phenyl)indolin-1-yl)phenyl)urea], the Ki in assay [1] was found to be 11.3 nM. The IC50 in assay [2] amounted to 0.05 µM.
Taken in the same sequence, the figures for `CC(C)(C)CN1CCC(c2ccc(NC(=O)Nc3ccccc3N3CC(C)(C)c4c(-c5ccc(Cl)cc5)c(F)cc(O)c43)cc2)CC1` [Example 240, 1-(2-(4-(4-Chlorophenyl)-5-fluoro-7-hydroxy-3,3-dimethylindolin-1-yl)phenyl)-3-(4-(1-neopentylpiperidin-4-yl)phenyl)urea] were 13.7 nM and 0.31 µM.
As for `CC(C)(C)c1ccc(-c2c(F)cc(O)c3c2C(C)(C)CN3c2ccccc2NC(=O)Nc2ccc(OC(F)(F)F)cc2)cc1` [Example 241, 1-(2-(4-(4-(tert-Butyl)phenyl)-5-fluoro-7-hydroxy-3,3-dimethylindolin-1-yl)phenyl)-3-(4-(trifluoromethoxy)phenyl)urea], in assay [1], the Ki worked out at 33.3 nM. Besides, in assay [2], the IC50 was found to be 0.15 µM.
Taken in the same sequence, the figures for `CC(C)(C)c1ccc(-c2c(F)cc(O)c3c2C(C)(C)CN3c2ccccc2NC(=O)Nc2csc(Cl)n2)cc1` [Example 242, 1-(2-(4-(4-(tert-Butyl)phenyl)-5-fluoro-7-hydroxy-3,3-dimethylindolin-1-yl)phenyl)-3-(2-chlorothiazol-4-yl)urea] were 12.6 nM and 0.06 µM.
Taken in the same sequence, the figures for `CC(C)(C)c1ccc(-c2c(F)cc(O)c3c2C(C)(C)CN3c2ccccc2NC(=O)Nc2csc(C(F)(F)F)n2)cc1` [Example 243, 1-(2-(4-(4-(tert-Butyl)phenyl)-5-fluoro-7-hydroxy-3,3-dimethylindolin-1-yl)phenyl)-3-(2-(trifluoromethyl)thiazol-4-yl)urea] were 20.3 nM and 0.1 µM.
